According to PubChem BioAssay AID179 (DTP/NCI, 2004):
The source made the active and inactive calls.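 The calls were made as follows: active = compounds giving half or more protection of infected cells from virus-caused growth loss, again on retest; inactive = the rest.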 Where a SMILES comes first, the peptide text is derived from it. [ ]: non-standard residue; d: D form. The star is where a group is joined. Phe(4-NO2) = N[CH](Cc1ccc([N+](=O)[O-])cc1)C(=O)O; Boc = CC(C)(C)OC(=O)*

System: CEM cells HIV-1 protection, formazan growth assay
Assay: NCI AIDS Antiviral Assay
Details: for IC50: measured here: growth of uninfected CEM cells
Outline: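 Soluble formazan readout of cell growth; CEM cells ± HIV-1; 5 drug concs. ≥50% protection → retest; ≥50% again = moderately active; reproducible 100% = confirmed active.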

CC(C)OC(=O)c1ccc(NCc2cc(O)ccc2O)cc1 showed an EC50 of over 200 µM and an IC50 of 2.19 µM.

COc1nc2c(c(=O)[nH]1)N=C(c1ccc(Cl)cc1)CC(c1ccccc1)N2 (stereo not given) gave an EC50 of over 200 µM and an IC50 of 55 µM.

COc1ccc(-n2c(=O)c3[nH]cnc3n(-c3ccc(OC)cc3)c2=S)cc1 was tested, and the EC50 was over 200 µM and the IC50 was over 200 µM.

CCOC(=O)c1c2c(nc3c1CCCC3)CCCC2 was tested, and the EC50 was over 200 µM and the IC50 was 64.6 µM.

FC(F)(F)c1ccc(C2ON=C(c3ccccc3)N2C23CC4CC(CC(C4)C2)C3)cc1 (stereo not given) showed an EC50 of over 200 µM and an IC50 of over 200 µM.

Work on CCN1C(=O)C(C)C=C(C)C=C1C (stereo not given) yielded an EC50 of over 724 µM and an IC50 of over 724 µM.

In the case of NC(=O)CCC(NCc1c2ccccc2[n+]([O-])c2ccccc12)C(=O)O (stereo not given), the outcome is reported as “inactive”.

In the case of O=S(=O)(c1ccccn1)c1nc2ccccc2s1, the outcome is reported as “inactive”.

Compound COc1ccccc1N1C(=O)/C(=C\c2cc(OC)c(OC)c(OC)c2)S(=O)(=O)C1c1ccccc1 (stereo not given) has an EC50 of over 200 µM and an IC50 of 38 µM.

With CCOC(=O)C1Cc2ccc(C)cc2C1=O (stereo not given) the EC50 was over 200 µM and the IC50 was 110 µM.

In the case of COc1ccc(N=c2ssc3c(=S)ssc23)cc1, the outcome is reported as “inactive”.

Cc1ccc(/C(O)=C/C(=O)C(=O)NN=C(c2ccccc2)c2ccccc2)cc1 showed an EC50 of over 200 µM and an IC50 of 107 µM.

CN1CCN=C1c1nnn(-c2ccc([N+](=O)[O-])cc2)c1-c1ccccc1 was tested, and the EC50 was 57.5 µM and the IC50 was 145 µM.

With Clc1ccc(/C=N/N=C/c2ccc(Cl)cc2)cc1 the outcome was “inactive”.

Cc1cc2c(=O)cc(-c3ccccc3Cl)oc2c(C#N)c1C showed an EC50 of over 100 µM and an IC50 of over 100 µM.

Compound O=C1CN(c2cccc(Cl)c2)C(=O)CN1CCN1CC(=O)N(c2cccc(Cl)c2)CC1=O has an EC50 of over 200 µM and an IC50 of over 200 µM.

In the case of CCCCCCCCCCCCOC(=N)N1CCOCC1, the EC50 is reported as over 91.2 µM and the IC50 is reported as 4.47 µM.

For CCS/C(SC)=C(/c1ccccc1)[P+](c1ccccc1)(c1ccccc1)c1ccccc1, the EC50 was over 20 µM and the IC50 was 0.355 µM.

COC(=O)c1cc(C)ccc1/C=C1\Cc2cc(C)c(C)cc2C1=O was tested, and the EC50 was over 100 µM and the IC50 was over 100 µM.

For CCN(C(=O)N[C@H](C(=O)N[C@@H](CSC)C(=O)N[C@@H](C)C(=O)OC)C(C)C)c1ccccc1, the outcome was “inactive”.

With COc1cc(/C=C2\C(=O)N(c3ccc(NC(C)=O)cc3)C(c3ccccc3)S2(=O)=O)cc(OC)c1OC (stereo not given) the EC50 was over 200 µM and the IC50 was 87.1 µM.

CC[N+]1(C2=C([O-])C(F)(F)C2=O)CCCCC1 showed an EC50 of over 200 µM and an IC50 of over 200 µM.

With O=C1CCc2nc3ccccc3c(=O)n21 the EC50 was over 1260 µM and the IC50 was over 1260 µM.

Compound COC(=O)[C@@H](COC(=O)/C=C/c1ccc(OC(C)=O)c(OC(C)=O)c1)NC(=O)/C=C/c1ccc(OC(C)=O)c(OC(C)=O)c1 has an EC50 of over 100 µM and an IC50 of 19.1 µM.

CC1CC[P+](c2ccccc2)(c2ccccc2)c2c1ccc1ccccc21 (stereo not given) was tested, and the EC50 was over 17.8 µM and the IC50 was 0.741 µM.

In the case of CC1=C(C(=O)Nc2ccc([N+](=O)[O-])cc2)C(c2ccc(N(C)C)cc2)C(C(=O)Nc2ccc([N+](=O)[O-])cc2)=C(C)N1, the EC50 is reported as over 17.8 µM and the IC50 is reported as over 17.8 µM.

CN1OC(C#N)(C#N)C(C#N)(C#N)C1c1ccccc1 (stereo not given) was tested, and the EC50 was over 200 µM and the IC50 was over 200 µM.

With O=C(NCCO)c1c(CNC2CCCCC2)n([O-])c2ccccc2[n+]1=O the EC50 was over 501 µM and the IC50 was over 501 µM.

CCCCCCNc1n[nH]c(=O)c2c1nnn2Cc1ccccc1 showed an EC50 of over 200 µM and an IC50 of over 200 µM.

In the case of CCCCn1c(N)n[nH]c1=S, the outcome is reported as “inactive”.

With N=C([Se])c1ncn(C2OC(CO)C(O)C2O)c1N (stereo not given) the EC50 was over 389 µM and the IC50 was 30.2 µM.

In the case of CC(C)(O)[C@H]1CC[C@@]23CCCC(=O)C2(C1)C3 (stereo not given in full), the outcome is reported as “inactive”.

Cc1cn(COCCCS(=O)c2ccccc2)c(=O)[nH]c1=O (stereo not given) showed an EC50 of over 200 µM and an IC50 of over 200 µM.

Work on CNC(=O)CCC(NC(=O)OC(C)(C)C)C(=O)NC(Cc1ccc([N+](=O)[O-])cc1)C(=O)NCC(=O)NC (stereo not given) (Boc-Glu(NHMe)-[Phe(4-NO2)]-Gly-NHMe; configuration not given here) yielded an EC50 of over 200 µM and an IC50 of over 200 µM.

CON(C)C(=O)C(Cc1ccccc1)NC(=O)OC(C)(C)C (stereo not given) showed an EC50 of over 813 µM and an IC50 of 155 µM.

COC(=O)C(Cc1ccccc1)C(=O)C(CC(=O)OC(C)(C)C)NC(=O)OC(C)(C)C (stereo not given) was tested, and the EC50 was over 200 µM and the IC50 was over 200 µM.

In the case of COc1c(C(=O)NCCN(CCNC(=O)c2cccc(-c3cccc(C(=O)N(C)C)c3OC)c2OC)CCNC(=O)c2cccc(-c3cccc(C(=O)N(C)C)c3OC)c2OC)cccc1-c1cccc(C(=O)N(C)C)c1OC, the outcome is reported as “inactive”.

With COc1cc2c3c(c1)nnn3C(=O)C(c1ccccc1)S2 (stereo not given) the EC50 was over 200 µM and the IC50 was over 200 µM.

CN1C(=O)c2ccccc2OC12C=Cc1c(ccc3ccccc13)O2 (stereo not given) gave an EC50 of over 195 µM and an IC50 of 14.1 µM.

With Cc1ccc(-c2nc3n(c2/C=N\N=C(N)N)CCS3)cc1 the EC50 was over 200 µM and the IC50 was 29.5 µM.

For S=c1nc[nH]c2c1ccc1[nH]cnc12, the EC50 was over 18.6 µM and the IC50 was over 18.6 µM.

In the case of Oc1ccc2c(c1)-c1c(c3cc(O)ccc3n1CCN1CCOCC1)CC2, the outcome is reported as “inactive”.
